The supplement of paper PMC13207355

Experiments:
Settings in all cases: exposure time: 72 h
E13 [1] = patient-derived glioblastoma stem cells of classical subtype; experiment: surviving fraction (nuclei count normalised to DMSO); higher = more cells surviving (less toxic)
E21 [2] = patient-derived glioblastoma stem cells of mesenchymal subtype; experiment: as above
E28 [3] = patient-derived glioblastoma stem cells of classical subtype; experiment: as above
E34 [4] = patient-derived glioblastoma stem cells of proneural subtype; experiment: as above
E57 [5] = patient-derived glioblastoma stem cells of mesenchymal subtype; experiment: as above
FT3469 [6] = normal neural stem cell line; experiment: as above
E13 [7] = experiment: phenotypic distance (Euclidean, principal components) from DMSO controls (arbitrary units); higher = stronger morphological change
E21 [8] = experiment: as above
E28 [9] = experiment: as above
E34 [10] = experiment: as above
E57 [11] = experiment: as above
FT3469 [12] = experiment: as above
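Wherever phenotypic distance (Euclidean, principal components) from DMSO controls is given: cell Painting imaging in 384-well plates, CellProfiler features reduced to at least 20 principal components, Euclidean distance versus same-plate DMSO vehicle wells (0.1% v/v), median over six images per well.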
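Wherever surviving fraction (nuclei count normalised to DMSO) is given: nuclei counted by high-content imaging of Hoechst-stained cells in laminin-coated 384-well plates, relative to 0.1% DMSO vehicle wells, with staurosporine as cell-death control.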

CN[C@@H](C)C(=O)N[C@H](C(=O)N1CCC[C@H]1C(=O)N[C@H]1c2ccccc2C[C@H]1OCC#CC#CCO[C@@H]1Cc2ccccc2[C@@H]1NC(=O)[C@@H]1CCCN1C(=O)[C@@H](NC(=O)[C@H](C)NC)C1CCCCC1)C1CCCCC1 [AZD5582]
Settings	phenotypic distance	surviving fraction
E13 [1], 4.1 nM	–	0.897
E13 [1], 12.3 nM	–	0.9073
E13 [1], 37 nM	–	0.764
E13 [1], 111.1 nM	–	0.8218
E13 [1], 333.3 nM	–	0.814
E13 [1], 1000 nM	–	0.789
E13 [1], 3000 nM	–	0.755
E13 [7], 4.1 nM	1.42	–
E13 [7], 12.3 nM	1.1	–
E13 [7], 37 nM	1.5	–
E13 [7], 111.1 nM	1.31	–
E13 [7], 333.3 nM	1.39	–
E13 [7], 1000 nM	1.63	–
E13 [7], 3000 nM	1.79	–
E21 [2], 4.1 nM	–	0.73
E21 [2], 12.3 nM	–	0.739
E21 [2], 37 nM	–	0.742
E21 [2], 111.1 nM	–	0.721
E21 [2], 333.3 nM	–	0.628
E21 [2], 1000 nM	–	0.633
E21 [2], 3000 nM	–	0.5049
E21 [8], 4.1 nM	1.08	–
E21 [8], 12.3 nM	1.03	–
E21 [8], 37 nM	1.42	–
E21 [8], 111.1 nM	1.39	–
E21 [8], 333.3 nM	1.47	–
E21 [8], 1000 nM	1.24	–
E21 [8], 3000 nM	1.92	–
E28 [3], 4.1 nM	–	0.975
E28 [3], 12.3 nM	–	1
E28 [3], 37 nM	–	0.978
E28 [3], 111.1 nM	–	1.01
E28 [3], 333.3 nM	–	1.021
E28 [3], 1000 nM	–	0.944
E28 [3], 3000 nM	–	0.802
E28 [9], 4.1 nM	0.701	–
E28 [9], 12.3 nM	0.512	–
E28 [9], 37 nM	0.645	–
E28 [9], 111.1 nM	0.558	–
E28 [9], 333.3 nM	0.744	–
E28 [9], 1000 nM	0.712	–
E28 [9], 3000 nM	2.48	–
E34 [4], 4.1 nM	–	0.925
E34 [4], 12.3 nM	–	0.838
E34 [4], 37 nM	–	0.855
E34 [4], 111.1 nM	–	0.911
E34 [4], 333.3 nM	–	0.9
E34 [4], 1000 nM	–	0.847
E34 [4], 3000 nM	–	0.764
E34 [10], 4.1 nM	0.7	–
E34 [10], 12.3 nM	0.804	–
E34 [10], 37 nM	0.881	–
E34 [10], 111.1 nM	1.07	–
E34 [10], 333.3 nM	0.735	–
E34 [10], 1000 nM	0.779	–
E34 [10], 3000 nM	1.26	–
E57 [5], 4.1 nM	–	0.95
E57 [5], 12.3 nM	–	0.901
E57 [5], 37 nM	–	0.824
E57 [5], 111.1 nM	–	0.756
E57 [5], 333.3 nM	–	0.756
E57 [5], 1000 nM	–	0.719
E57 [5], 3000 nM	–	0.771
E57 [11], 4.1 nM	0.861	–
E57 [11], 12.3 nM	1.22	–
E57 [11], 37 nM	1.41	–
E57 [11], 111.1 nM	2.04	–
E57 [11], 333.3 nM	2.285	–
E57 [11], 1000 nM	2.41	–
E57 [11], 3000 nM	2.795	–
FT3469 [6], 4.1 nM	–	1.01
FT3469 [6], 12.3 nM	–	0.996
FT3469 [6], 37 nM	–	1.07
FT3469 [6], 111.1 nM	–	1.03
FT3469 [6], 333.3 nM	–	1.09
FT3469 [6], 1000 nM	–	0.918
FT3469 [6], 3000 nM	–	0.951
FT3469 [12], 4.1 nM	0.951	–
FT3469 [12], 12.3 nM	1.11	–
FT3469 [12], 37 nM	1.34	–
FT3469 [12], 111.1 nM	0.955	–
FT3469 [12], 333.3 nM	0.844	–
FT3469 [12], 1000 nM	1.57	–
FT3469 [12], 3000 nM	1.61	–

CN1C(=O)[C@@]23C[C@]4([C@]56C[C@@]78SS[C@@](CO)(C(=O)N7[C@H]5Nc5ccccc56)N(C)C8=O)c5ccccc5N[C@@H]4N2C(=O)[C@]1(CO)SS3 [Chaetocin]
Settings	phenotypic distance	surviving fraction
E13 [1], 4.1 nM	–	0.552
E13 [1], 12.3 nM	–	0.4
E13 [1], 37 nM	–	0.0566
E13 [1], 111.1 nM	–	0.0323
E13 [1], 333.3 nM	–	0.00998
E13 [1], 1000 nM	–	0.0119
E13 [1], 3000 nM	–	0.0124
E13 [7], 4.1 nM	2.76	–
E13 [7], 12.3 nM	3.18	–
E13 [7], 37 nM	5.87	–
E13 [7], 111.1 nM	7.1	–
E13 [7], 333.3 nM	10.5	–
E13 [7], 1000 nM	9.83	–
E13 [7], 3000 nM	10.7	–
E21 [2], 4.1 nM	–	0.253
E21 [2], 12.3 nM	–	0.0911
E21 [2], 37 nM	–	0.0242
E21 [2], 111.1 nM	–	0.00808
E21 [2], 333.3 nM	–	0.00862
E21 [2], 1000 nM	–	0.0113
E21 [2], 3000 nM	–	0.00808
E21 [8], 4.1 nM	4.37	–
E21 [8], 12.3 nM	4.95	–
E21 [8], 37 nM	7.07	–
E21 [8], 111.1 nM	10.1	–
E21 [8], 333.3 nM	12.7	–
E21 [8], 1000 nM	11.4	–
E21 [8], 3000 nM	14.2	–
E28 [3], 4.1 nM	–	0.328
E28 [3], 12.3 nM	–	0.281
E28 [3], 37 nM	–	0.1561
E28 [3], 111.1 nM	–	0.111
E28 [3], 333.3 nM	–	0.00802
E28 [3], 1000 nM	–	0.00283
E28 [3], 3000 nM	–	0.00707
E28 [9], 4.1 nM	1.98	–
E28 [9], 12.3 nM	2.51	–
E28 [9], 37 nM	3.933	–
E28 [9], 111.1 nM	5.55	–
E28 [9], 333.3 nM	10.4	–
E28 [9], 1000 nM	9.23	–
E28 [9], 3000 nM	9.7	–
E34 [4], 4.1 nM	–	0.41
E34 [4], 12.3 nM	–	0.345
E34 [4], 37 nM	–	0.149
E34 [4], 111.1 nM	–	0.0449
E34 [4], 333.3 nM	–	0.0206
E34 [4], 1000 nM	–	0.0187
E34 [4], 3000 nM	–	0.0159
E34 [10], 4.1 nM	2.24	–
E34 [10], 12.3 nM	3.35	–
E34 [10], 37 nM	6.13	–
E34 [10], 111.1 nM	7.1327	–
E34 [10], 333.3 nM	10.8	–
E34 [10], 1000 nM	13	–
E34 [10], 3000 nM	11.9	–
E57 [5], 4.1 nM	–	0.765
E57 [5], 12.3 nM	–	0.402
E57 [5], 37 nM	–	0.056
E57 [5], 111.1 nM	–	0.0464
E57 [5], 333.3 nM	–	0.00359
E57 [5], 1000 nM	–	0.00745
E57 [5], 3000 nM	–	0.00248
E57 [11], 4.1 nM	2.84	–
E57 [11], 12.3 nM	3.23	–
E57 [11], 37 nM	4.87	–
E57 [11], 111.1 nM	5.13	–
E57 [11], 333.3 nM	8.15	–
E57 [11], 1000 nM	9.97	–
E57 [11], 3000 nM	10.7	–
FT3469 [6], 4.1 nM	–	0.518
FT3469 [6], 12.3 nM	–	0.481
FT3469 [6], 37 nM	–	0.364
FT3469 [6], 111.1 nM	–	0.194
FT3469 [6], 333.3 nM	–	0.00806
FT3469 [6], 1000 nM	–	0.0296
FT3469 [6], 3000 nM	–	0.0116
FT3469 [12], 4.1 nM	3.69	–
FT3469 [12], 12.3 nM	3.49	–
FT3469 [12], 37 nM	4.19	–
FT3469 [12], 111.1 nM	5.8	–
FT3469 [12], 333.3 nM	10.7	–
FT3469 [12], 1000 nM	10.1	–
FT3469 [12], 3000 nM	9.44	–
